Reference: patent US7001907B2, “Peptide-containing α-ketoamide cysteine and serine protease inhibitors” (Cephaon, Inc., priority 1997, dated 2006)

Biological target: T1, Recombinant human calpain I (Homo sapiens, UniProt P07384)
T1 construct: made in house
T1 sequence (P07384 1-714): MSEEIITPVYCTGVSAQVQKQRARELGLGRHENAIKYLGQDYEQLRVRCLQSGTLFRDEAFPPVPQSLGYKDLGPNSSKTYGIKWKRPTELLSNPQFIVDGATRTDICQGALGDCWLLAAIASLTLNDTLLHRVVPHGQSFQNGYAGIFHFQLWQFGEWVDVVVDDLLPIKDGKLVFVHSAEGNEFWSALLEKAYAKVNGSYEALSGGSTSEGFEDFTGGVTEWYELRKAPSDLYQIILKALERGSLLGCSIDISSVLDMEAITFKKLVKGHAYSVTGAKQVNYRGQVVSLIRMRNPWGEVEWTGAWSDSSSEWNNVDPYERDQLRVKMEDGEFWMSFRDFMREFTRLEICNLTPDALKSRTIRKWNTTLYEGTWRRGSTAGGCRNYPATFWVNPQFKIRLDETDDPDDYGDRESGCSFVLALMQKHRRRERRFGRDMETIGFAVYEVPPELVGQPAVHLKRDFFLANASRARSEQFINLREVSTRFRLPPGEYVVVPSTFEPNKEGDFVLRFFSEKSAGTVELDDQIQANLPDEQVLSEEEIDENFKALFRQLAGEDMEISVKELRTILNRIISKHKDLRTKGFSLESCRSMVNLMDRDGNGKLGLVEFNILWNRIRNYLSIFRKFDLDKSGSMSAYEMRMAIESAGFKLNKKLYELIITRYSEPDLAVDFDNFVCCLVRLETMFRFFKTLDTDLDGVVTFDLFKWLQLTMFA
T1 sequence (P04632 1-268 partner): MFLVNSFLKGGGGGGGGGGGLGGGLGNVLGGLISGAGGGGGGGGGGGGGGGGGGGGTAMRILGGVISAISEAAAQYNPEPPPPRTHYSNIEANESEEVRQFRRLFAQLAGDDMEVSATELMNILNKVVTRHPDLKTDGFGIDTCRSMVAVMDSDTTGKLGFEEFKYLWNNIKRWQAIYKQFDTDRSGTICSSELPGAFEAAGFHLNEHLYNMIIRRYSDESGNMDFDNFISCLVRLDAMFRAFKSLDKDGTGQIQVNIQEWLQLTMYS
Experiment: Inhibition of cysteine protease activity: calpain I, Succ-Leu-Tyr-MNA substrate hydrolysis
Format: biochemical
Method: To evaluate inhibitory activity, stock solutions (40 times concentrated) of each compound to be tested were prepared in 100% anhydrous DMSO and 5 μl of each inhibitor preparation were aliquoted into each of three wells of a 96-well plate. Recombinant human calpain I, prepared by the method of Meyer et al. (Biochem. J. 1996, 314: 511–519; incorporated herein by reference in its entirety), was diluted into assay buffer (i.e., 50 mM Tris, 50 mM NaCl, 1 mM EDTA, 1 mM EGTA, and 5 mM β-mercaptoethanol, pH 7.5, including 0.2 mM Succ-Leu-Tyr-MNA), and 175 μl was aliquoted into the same wells containing the independent inhibitor stocks as well as to positive control wells containing 5 μl DMSO, but no compound. To start the reaction, 20 μl of 50 mM CaCl2 in assay buffer was added to all wells of the plate, excepting three, which were used as background signal baseline controls. Substrate hydrolysis was monitored every 5 minutes for a total of 30 minutes. Substrate hydrolysis in the absence of inhibitor was linear for up to 15 minutes.
Inhibition of calpain I activity was calculated as the percent decrease in the rate of substrate hydrolysis in the presence of inhibitor relative to the rate in its absence. Comparison between the inhibited and control rates was made within the linear range for substrate hydrolysis. The IC50s of inhibitors (concentration yielding 50% inhibition) were determined from the percent decrease in rates of substrate hydrolysis in the presence of five to seven different concentrations of the test compound. The results were plotted as percent inhibition versus log inhibitor concentration, and the IC50 was calculated by fitting the data to the four-parameter logistic equation shown below using the program GraphPad Prism (GraphPad Software, Inc., San Diego, Calif.). y=d+[(a−d)/(1+(x/c)^b)]
The parameters a, b, c, and d are defined as follows: a is % inhibition in the absence of inhibitor, b is the slope, c is the IC50, and d is the % inhibition at an infinite concentration of inhibitor.

[1] = Table 5, achiral P2 mimetic α-ketoamides

Row | IC50 (Table 4, α-ketoamides) | Compound | other results
1 | 36 nM | CN(Cc1cccc(-c2ccc(S(=O)(=O)NCCNC(=O)C(=O)[C@H](Cc3ccccc3)NC(=O)[C@@H](COCc3ccccc3)NS(C)(=O)=O)s2)c1)C1CCCCC1 [Compound 102] | 
2 | 24 nM | CS(=O)(=O)N[C@H](COCc1ccccc1)C(=O)N[C@@H](Cc1ccccc1)C(=O)C(=O)NCCNS(=O)(=O)c1ccc(-c2cccc(CN3CCCC3)c2)s1 [Compound 103] | 
3 | 10 nM | CS(=O)(=O)N[C@H](COCc1ccccc1)C(=O)N[C@@H](Cc1ccccc1)C(=O)C(=O)NCCNS(=O)(=O)c1ccc(-c2cccc(C#N)c2)s1 [Compound 104] | 
4 | 44 nM | CS(=O)(=O)N[C@H](COCc1ccccc1)C(=O)N[C@@H](Cc1ccccc1)C(=O)C(=O)NCCNS(=O)(=O)c1ccc(-c2cccc(CN3CCC3)c2)s1 [Compound 106] | 
5 | 22 nM | COCCN(CCOC)Cc1cccc(-c2ccc(S(=O)(=O)NCCNC(=O)C(=O)[C@H](Cc3ccccc3)NC(=O)[C@@H](COCc3ccccc3)NS(C)(=O)=O)s2)c1 [Compound 109] | 
6 | 33 nM | CS(=O)(=O)N[C@H](COCc1ccccc1)C(=O)N[C@@H](Cc1ccccc1)C(=O)C(=O)NCCNS(=O)(=O)c1ccc(-c2cccc(CN3CCSCC3)c2)s1 [Compound 114] | 
7 | 16 nM | CS(=O)(=O)N[C@H](COCc1ccccc1)C(=O)N[C@@H](Cc1ccccc1)C(=O)C(=O)NCCNS(=O)(=O)c1ccc(-c2cccc(CN3CCC(=O)CC3)c2)s1 [Compound 115] | 
8 | 100 nM | CS(=O)(=O)N[C@@H](COCc1ccccc1)C(=O)N[C@@H](Cc1ccccc1)C(=O)C(=O)NCCNS(=O)(=O)c1ccccc1 [Compound 116] | 

Continued, compound first:

Row | Compound | IC50 (Table 4, α-ketoamides) | other results
9 | CC(C)(C)OC(=O)NC1CCCC(NC(=O)C(=O)[C@H](Cc2ccccc2)NC(=O)[C@@H](COCc2ccccc2)NS(C)(=O)=O)C1 (stereo partly drawn) [Compound 55] | 42 nM | 
10 | CS(=O)(=O)N[C@H](COCc1ccccc1)C(=O)N[C@@H](Cc1ccccc1)C(=O)C(=O)NCCNS(=O)(=O)c1ccc(-c2cccc(CN3CCOCC3)c2)s1 [Compound 56] | 18 nM | 
11 | CS(=O)(=O)N[C@H](COCc1ccccc1)C(=O)N[C@@H](Cc1ccccc1)C(=O)C(=O)NCCNS(=O)(=O)c1ccc(CN2CCOCC2)cc1 [Compound 57] | 18 nM | 
12 | CN1CCN(Cc2cccc(-c3ccc(S(=O)(=O)NCCNC(=O)C(=O)[C@H](Cc4ccccc4)NC(=O)[C@@H](COCc4ccccc4)NS(C)(=O)=O)s3)c2)CC1 [Compound 58] | 21 nM | 
13 | CS(=O)(=O)N[C@H](COCc1ccccc1)C(=O)N[C@@H](Cc1ccccc1)C(=O)C(=O)NCCS(=O)(=O)Nc1ccccc1 [Compound 60] | 47 nM | 
14 | CS(=O)(=O)N[C@H](COCc1ccccc1)C(=O)N[C@@H](Cc1ccccc1)C(=O)C(=O)NCCS(=O)(=O)Nc1ccc(C(F)(F)F)cc1 [Compound 61] | 32 nM | 
15 | CS(=O)(=O)N[C@H](COCc1ccccc1)C(=O)N[C@@H](Cc1ccccc1)C(=O)C(=O)NCCCS(=O)(=O)Nc1ccccc1 [Compound 62] | 18 nM | 
16 | CS(=O)(=O)N[C@H](COCc1ccccc1)C(=O)N[C@@H](Cc1ccccc1)C(=O)C(=O)NCCCS(=O)(=O)Nc1ccc(C(F)(F)F)cc1 [Compound 63] | 23 nM | 
17 | CS(=O)(=O)N[C@H](COCc1ccccc1)C(=O)N[C@@H](Cc1ccccc1)C(=O)C(=O)NC1CCC(=O)NC1 (stereo partly drawn) [Compound 64] |  | Percent inhibition @ 0.1 μM (Calpain) (Table 4, 0.1 μM compound, value in brackets marked *): (33)* Percent
18 | CN(CCNC(=O)C(=O)[C@H](Cc1ccccc1)NC(=O)[C@@H](COCc1ccccc1)NS(C)(=O)=O)S(=O)(=O)c1ccc(-c2cccc(C=O)c2)s1 [Compound 65] | 19 nM | 
19 | C[C@H](OCc1ccccc1)[C@@H](NS(C)(=O)=O)C(=O)N[C@@H](Cc1ccccc1)C(=O)C(=O)NCCNS(=O)(=O)c1ccc(-c2ccccn2)s1 [Compound 66] | 12 nM | 
20 | CS(=O)(=O)N[C@H](Cc1ccccc1)C(=O)N[C@@H](Cc1ccccc1)C(=O)C(=O)NCCNS(=O)(=O)c1ccc(-c2ccccn2)s1 [Compound 71] | 18 nM | 
21 | CS(=O)(=O)N[C@H](COCc1ccccc1)C(=O)N[C@@H](Cc1ccccc1)C(=O)C(=O)NCCCS(=O)(=O)NN1CCOCC1 [Compound 80] | 169 nM | 
22 | CS(=O)(=O)N[C@H](COCc1ccccc1)C(=O)N[C@@H](Cc1ccccc1)C(=O)C(=O)NCCCS(=O)(=O)N1CCOCC1 [Compound 81] | 124 nM | 
23 | CN(C)c1cccc2c(S(=O)(=O)NCCNC(=O)C(=O)[C@H](Cc3ccccc3)NC(=O)[C@@H](COCc3ccccc3)NS(C)(=O)=O)cccc12 [Compound 86] | 49 nM | 
24 | CS(=O)(=O)N[C@H](COCc1ccccc1)C(=O)N[C@@H](Cc1ccccc1)C(=O)C(=O)NCCNS(=O)(=O)c1cc2ccccc2s1 [Compound 87] | 23 nM | 

Row | Compound | IC50 (Table 4, α-ketoamides) | other results
25 | CC(C)C[C@H](NC(=O)OCc1ccccc1)C(=O)N[C@@H](CC(C)C)C(=O)N[C@@H](Cc1ccccc1)C(=O)C(=O)NCCNS(=O)(=O)c1ccc(-c2ccccn2)s1 [Compound 88] | 33 nM | 
26 | CS(=O)(=O)N[C@H](COCc1ccccc1)C(=O)N[C@@H](Cc1ccccc1)C(=O)C(=O)NCCNS(=O)(=O)c1ccc(-c2ccc(C=O)cc2)s1 [Compound 90] | 17 nM | 
27 | COCC1CCCN1Cc1ccc(S(=O)(=O)NCCNC(=O)C(=O)[C@H](Cc2ccccc2)NC(=O)[C@@H](COCc2ccccc2)NS(C)(=O)=O)cc1 (stereo partly drawn) [Compound 91] | 19 nM | 
28 | CS(=O)(=O)N[C@H](COCc1ccccc1)C(=O)N[C@@H](Cc1ccccc1)C(=O)C(=O)NCCNS(=O)(=O)c1ccc(-c2ccccc2CN2CCOCC2)s1 [Compound 93] | 40 nM | 
29 | CS(=O)(=O)N[C@H](COCc1ccccc1)C(=O)N[C@@H](Cc1ccccc1)C(=O)C(=O)NCCNS(=O)(=O)c1ccc(-c2ccc(CN3CCOCC3)cc2)s1 [Compound 94] | 22 nM | 
30 | CS(=O)(=O)N[C@H](COCc1ccccc1)C(=O)N[C@@H](Cc1ccccc1)C(=O)C(=O)NCCNS(=O)(=O)c1ccc(-c2cccc(CN3CCCCC3)c2)s1 [Compound 95] | 30 nM | 
31 | CC(=O)Nc1nc(C)c(S(=O)(=O)NCCNC(=O)C(=O)[C@H](Cc2ccccc2)NC(=O)[C@@H](COCc2ccccc2)NS(C)(=O)=O)s1 [Compound 96] | 23 nM | 
32 | CS(=O)(=O)N[C@H](COCc1ccccc1)C(=O)N[C@@H](Cc1ccccc1)C(=O)C(=O)NCCNS(=O)(=O)c1ccc(-c2ccccc2C=O)s1 [Compound 98] | 24 nM | 
33 | CCN(CC)Cc1cccc(-c2ccc(S(=O)(=O)NCCNC(=O)C(=O)[C@H](Cc3ccccc3)NC(=O)[C@@H](COCc3ccccc3)NS(C)(=O)=O)s2)c1 [Compound 101] | 22 nM | 
34 | O=C(NCCNS(=O)(=O)c1ccc(-c2ccccn2)s1)C(=O)[C@H](Cc1ccccc1)NC(=O)c1ccccc1 [Compound 117] |  | IC50 [1]: 800 nM
35 | O=C(NCCNS(=O)(=O)c1ccc(-c2ccccn2)s1)C(=O)[C@H](Cc1ccccc1)NC(=O)c1c(Cl)cccc1Cl [Compound 118] |  | IC50 [1]: 36 nM
36 | Cc1ccc(Cl)c(C(=O)N[C@@H](Cc2ccccc2)C(=O)C(=O)NCCNS(=O)(=O)c2ccc(-c3ccccn3)s2)c1Cl [Compound 119] |  | IC50 [1]: 61 nM
37 | O=C(NCCNS(=O)(=O)c1ccc(-c2ccccn2)s1)C(=O)[C@H](Cc1ccccc1)NC(=O)c1c(F)cccc1F [Compound 120] |  | IC50 [1]: 20 nM
38 | O=C(NCCNS(=O)(=O)c1ccc(-c2ccccn2)s1)C(=O)[C@H](Cc1ccccc1)NC(=O)c1ccc2c(c1)OCO2 [Compound 123] |  | IC50 [1]: > 1000 nM
39 | COc1ccc(Cl)c(C(=O)N[C@@H](Cc2ccccc2)C(=O)C(=O)NCCNS(=O)(=O)c2ccc(-c3ccccn3)s2)c1 [Compound 125] |  | IC50 [1]: 65 nM
